Results published in EP0353047B1, “Use of imidazopyrazole derivatives as analgesics and anti-inflammatory agents” (Sankyo Company Limited, priority 1988, dated 1990).
Marks after values point to notes of the source that are not given here.

Columns and labels:
Acute toxicity = assay type: in vivo; conditions: mouse, in vivo; fraction of animals; dose 300 mg/kg oral in 0.5% carboxymethyl cellulose, observed for 7 days
Procedure: The test animals employed were male mice of the ddy strain (age: 5 weeks). […] The dose of test compound was 300 mg/kg.

[1] = tested on: carrageenan-induced edema; test: Anti-inflammatory effect (carrageenan edema method); assay type: in vivo, rats of the Wistar strain; conditions: Rattus norvegicus; percent inhibition of carrageenan-induced edema; dose 25 mg/kg (*), oral
Procedure: The percent inhibition against carrageenan-induced edema in rats of the Wistar strain, using the conventional method of C.A. Winter, E.A. Risley, G.W. Nuss [J. Pharmacol., Exp. Therap., 141, 369 (1963)]. Except where otherwise noted, the dose of test compound was 50 mg/kg.

[2] = tested on: rats of the Wistar strain; test: Analgesic effect (Randall-Selitto method); assay type: in vivo; conditions: fraction of animals; dose 25 mg/kg (*), oral
Procedure: These tests were conducted according to the Randall-Selitto method using rats of the Wistar strain [L.O. Randall, J.J. Selitto: Arch. int. Pharmacodyn. 111, 409 (1957)]. Except where otherwise noted, the dose of test compound was 50 mg/kg.

[3] = tested on: inflammation induced by anti-rat IgG rabbit serum; test: Anti-inflammatory effect (reversed passive alusas reaction, Evans blue extraction); assay type: in vivo, rats of the Sprague-Dawley strain; conditions: 2.5 h, percent inhibition of inflammation relative to control group, dose 25 mg/kg (*), oral
Procedure: The test animals were rats of the Sprague-Dawley strain, which had first been fasted for 17 hours. The hair was trimmed from their dorsal portions by means of a hair clipper, and 0.1 ml/site of anti-rat IgG rabbit serum was injected intracutaneously at the trimmed part to induce inflammation. Except in the case of the control animals, to which no anti-inflammatory drug was administered, the test drug was administered orally immediately before inflammation was induced. Except where otherwise noted, the dose of test compound was 50 mg/kg. Two hours after induction of inflammation, a 1% by volume solution of Evans blue in physiological saline was injected intravenously into the tail of each rat in an amount of 1 ml per each animal. 30 minutes after this injection, the rats were sacrificed with carbon dioxide and their skins were peeled off to extract the chromogen of the blue spots. In more detail, the skins were cut into small pieces and extracted with 5 ml of an extraction solvent at room temperature for 2 days. The supernatant obtained by centrifugation was then measured spectrophotometrically at an absorption wavelength of 605 nm. The percent inhibition of inflammation of the group of rats to which the test drug was administered was determined relative to the control group.

## Cc1ccc(-c2cnn3cc[nH]c23)cc1 [Example 35, 7-(p-methylphenyl)-1H-imidazo[1,2-b]pyrazole]
Acute toxicity
  mortality at 168 h: 30%
[1]
  inhibition in vivo at 25 mg/kg: 56.4%
[2]
  Analgesic effect (Randall-Selitto): 5/5*
[3]
  inhibition in vivo at 25 mg/kg: 69.9%
